Test results as given in patent publication US20250346600A1, “TRICYCLIC DERIVATIVES AND RELATED USES” (MOMA Therapeutics, Inc., priority 2023, published 2025).

Key:
HT29 cells = assay: HT29 (MSS) 7 day viability, CellTiter Glo; assay type: cell-based; settings: Homo sapiens, HT-29, 168 h, 7 days, read-out: HT29 (MSS) Viability 7 Day CTGAbs AC50
Procedure, shortened: (§1)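 HCT116 seeded at 50 cells/well and HT29 at 500 cells/well onto compound plates (10-point 3-fold dilutions from 10 mM DMSO stock), incubated 7 days at 37 °C, 5% CO2.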

HCT116 cells = assay: HCT116 (MSI) 7 day viability, CellTiter Glo; assay type: cell-based; settings: Homo sapiens, HCT-116, 168 h, 7 days, read-out: HCT116 (MSI) Viability 7 Day Abs AC50
Procedure, shortened: as §1

[1] = molecular target: Full length WRN protein (aa 2-1432) (Homo sapiens (Human), UniProt Q14191); assay: WRN ATPase ADP-Glo biochemical assay, Assay Format A (10 μM ATP); settings: 0.25 nM WRN, 100 nM C6.18 ssDNA, 30 min preincubation, read-out: ATPase ADPGlo AC50 (uM)- Assay Format A
Full length WRN protein (aa 2-1432), sequence (Q14191 2-1432): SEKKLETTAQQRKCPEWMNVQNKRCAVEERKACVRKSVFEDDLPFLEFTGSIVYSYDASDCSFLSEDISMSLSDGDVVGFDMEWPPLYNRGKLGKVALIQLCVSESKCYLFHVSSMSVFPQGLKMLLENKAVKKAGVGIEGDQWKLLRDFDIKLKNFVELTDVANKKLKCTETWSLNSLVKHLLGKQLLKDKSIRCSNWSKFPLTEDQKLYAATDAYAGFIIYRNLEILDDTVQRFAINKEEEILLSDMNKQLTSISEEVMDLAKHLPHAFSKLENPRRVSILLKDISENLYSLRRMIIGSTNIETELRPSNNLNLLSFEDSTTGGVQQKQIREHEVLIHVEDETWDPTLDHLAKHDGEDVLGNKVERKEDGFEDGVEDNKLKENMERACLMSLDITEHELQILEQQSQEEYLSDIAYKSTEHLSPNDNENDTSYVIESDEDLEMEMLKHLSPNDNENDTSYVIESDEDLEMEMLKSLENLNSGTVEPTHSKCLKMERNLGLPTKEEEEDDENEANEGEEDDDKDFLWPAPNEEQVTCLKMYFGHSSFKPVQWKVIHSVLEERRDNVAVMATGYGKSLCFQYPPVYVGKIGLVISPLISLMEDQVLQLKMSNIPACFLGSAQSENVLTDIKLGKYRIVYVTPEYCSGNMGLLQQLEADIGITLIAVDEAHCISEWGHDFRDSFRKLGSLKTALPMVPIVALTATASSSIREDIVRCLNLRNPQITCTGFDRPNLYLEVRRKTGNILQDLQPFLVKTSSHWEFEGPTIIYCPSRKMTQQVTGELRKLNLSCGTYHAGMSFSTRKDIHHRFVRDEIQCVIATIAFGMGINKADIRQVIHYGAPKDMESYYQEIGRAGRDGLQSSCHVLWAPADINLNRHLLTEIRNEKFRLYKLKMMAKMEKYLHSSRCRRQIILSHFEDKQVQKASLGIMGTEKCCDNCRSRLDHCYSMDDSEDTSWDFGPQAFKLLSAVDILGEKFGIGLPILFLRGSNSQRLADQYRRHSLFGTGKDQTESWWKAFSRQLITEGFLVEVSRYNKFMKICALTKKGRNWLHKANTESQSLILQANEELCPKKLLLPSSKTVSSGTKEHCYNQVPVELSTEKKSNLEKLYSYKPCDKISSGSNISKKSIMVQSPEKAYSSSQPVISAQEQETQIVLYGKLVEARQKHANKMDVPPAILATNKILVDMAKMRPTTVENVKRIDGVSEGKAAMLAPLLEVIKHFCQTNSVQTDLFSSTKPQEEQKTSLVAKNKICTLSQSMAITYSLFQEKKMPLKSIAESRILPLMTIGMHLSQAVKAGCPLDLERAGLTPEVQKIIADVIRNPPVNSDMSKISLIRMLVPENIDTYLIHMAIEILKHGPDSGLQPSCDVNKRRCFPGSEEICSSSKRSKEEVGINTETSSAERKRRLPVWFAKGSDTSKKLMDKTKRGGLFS
Description: Full length Werner helicase construct (Uniprot: Q14191) with an N-terminal FLAG-AVI-TEV tag was expressed using the Sf9 cell/baculovirus expression system. The harvested cell pellet was resuspended and lysed in a glass homogenizer. After insoluble material was removed by centrifugation, the helicase protein was first purified with FLAG affinity resin and then further purified through a size-exclusion chromatography column. Peak fractions containing the purified protein were concentrated, split into aliquots and frozen in liquid nitrogen to be thawed before use. Biochemical Assay Description (ATPase activity)-Assay Format A WRN activity was measured using an ATPase assay. Full length WRN protein (aa 2-1432) (production described separately) was used for the biochemical activity assays. The 39-mer ssDNA “C6.18” [NT] was purchased from IDT and used as a substrate. Quantification of ATP hydrolysis was evaluated using the ADP-Glo assay kit (Promega, Madison, WI). An enzyme titration time-course was performed to determine the optimal assay conditions. […] To evaluate the inhibitory effects of the compounds, 11-point 3-fold serial dilutions were prepared in DMSO. 50 nL of each concentration in duplicate was preincubated for 30 minutes in a 384-well microplate (Greiner #784075) with 5 μL of 0.5 nM WRN in assay buffer. The reaction was initiated by adding 5 μL of 200 nM C6.18 DNA with 20 μM ATP and was allowed to proceed for 30 minutes at room temperature. The reaction was stopped with 10 μL ADP-Glo reagent for 1 hour to remove unreacted ATP. Lastly, 20 μL ATP detection reagent was added and incubated for 1 hour to generate the luminescence signal. Control wells included “high controls” with no inhibition (DMSO, no compound) and “low controls” with maximum inhibition (no WRN). Luminescence was recorded on a PHERAstar (BMG Labtech, Ortenberg, Germany). Data was fit using the “Smart Fit” method within the Genedata Screener Software (Basel, Switzerland) to obtain IC50 values using four-parameter fits. Reported IC50s are the geometric means of at least two independent trials.

Structure (SMILES) | AC50 [1] [µM] | AC50 (HT29 cells) [µM] | AC50 (HCT116 cells) [µM]
C=CC(=O)N1CCc2nn(-c3ccc(C4CCC4)cc3O)c3c2C(C1)N(C(=O)c1ncc(C(F)(F)F)c2[nH]cnc12)CC3 (centres unmarked) [Compound 154, 1-(2-(4-cyclobutyl-2-hydroxyphenyl)-5-(7-(trifluoromethyl)-1H-imidazo[4,5-c]pyridine-4-carbonyl)-2,3,4,5,5a,6,8,9-octahydro-7H-1,2,5,7-tetraazabenzo[cd]azulen-7-yl)prop-2-en-1-one] | < 0.0015 | > 3 | 0.001 to 0.1
C=CC(=O)N1CCN(C)c2nn(-c3ccc(C(C)C)cc3)c3c2C(C1)N(C(=O)c1ccc(Br)c2[nH]cnc12)CC3 (centres unmarked) [Compound 56, 1-(5-(7-bromo-1H-benzo[d]imidazole-4-carbonyl)-2-(4-isopropylphenyl)-10-methyl-2,4,5,5a,6,8,9,10-octahydro-1,2,5,7,10-pentaazacycloocta[cd]inden-7(3H)-yl)prop-2-en-1-one] | 0.015 to 0.055 | > 3 | 0.25 to 0.5
C=CC(=O)N1CCc2nn(-c3ccc(C4CC4)cc3)c3c2C(C1)N(C(=O)c1cnc([N+](=O)[O-])c(O)c1)CC3 (centres unmarked) [Compound 120, 1-(2-(4-cyclopropylphenyl)-5-(5-hydroxy-6-nitronicotinoyl)-2,3,4,5,5a,6,8,9-octahydro-7H-1,2,5,7-tetraazabenzo[cd]azulen-7-yl)prop-2-en-1-one] | 0.0015 to 0.005 | > 3 | > 1
C=CC(=O)N1CCc2nn(-c3ccc(C4CC4)cc3)c3c2C(C1)N(C(=O)C12CC(C(F)(F)F)(C1)C2)CC3 (centres unmarked) [Compound 121, 1-(2-(4-cyclopropylphenyl)-5-(3-(trifluoromethyl)bicyclo [1.1.1]pentane-1-carbonyl)-2,3,4,5,5a,6,8,9-octahydro-7H-1,2,5,7-tetraazabenzo[cd]azulen-7-yl)prop-2-en-1-one] | 0.015 to 0.055 |  | 

Second part, led by results:

AC50 [1] [µM] | Structure (SMILES) | AC50 (HT29 cells) [µM] | AC50 (HCT116 cells) [µM]
> 0.055 | C=CC(=O)N1CCc2nn(-c3ccc(C(C)C)cc3)c3c2C(C1)N(C(=O)C1CC1)CC3 (centres unmarked) [Compound 170, 1-(5-(cyclopropanecarbonyl)-2-(4-isopropylphenyl)-2,3,4,5,5a,6,8,9-octahydro-7H-1,2,5,7-tetraazabenzo[cd]azulen-7-yl)prop-2-en-1-one] | > 3 | > 1
> 0.055 | C=CC(=O)N1CCc2nn(-c3ccc(C(C)C)cc3)c3c2C(C1)N(C(=O)c1ccc2c(cnn2C(F)(F)F)c1)CC3 (centres unmarked) [Compound 11, 1-(2-(4-isopropylphenyl)-5-(1-(trifluoromethyl)-1H-indazole-5-carbonyl)-2,3,4,5,5a,6,8,9-octahydro-7H-1,2,5,7-tetraazabenzo[cd]azulen-7-yl)prop-2-en-1-one] | > 3 | > 1
0.015 to 0.055 | CN(C)CC=CC(=O)N1CCOc2nn(-c3ccc(C4CCC4)cc3)c3c2C(C1)N(C(=O)c1ccc(Br)c2[nH]cnc12)CC3 (centres unmarked) [Compound 51, 1-(5-(7-bromo-1H-benzo[d]imidazole-4-carbonyl)-2-(4-cyclobutylphenyl)-2,3,4,5,5a,6,8,9-octahydro-7H-10-oxa-1,2,5,7-tetraazacycloocta[cd]inden-7-yl)-4-(dimethylamino)but-2-en-1-one] | > 3 | > 1
0.015 to 0.055 | C=CC(=O)N1CCc2nn(-c3ccc(C4CC4)cc3)c3c2C(C1)N(C(=O)c1ccc(OC(C)C)nc1)CC3 (centres unmarked) [Compound 122, 1-(2-(4-cyclopropylphenyl)-5-(6-isopropoxynicotinoyl)-2,3,4,5,5a,6,8,9-octahydro-7H-1,2,5,7-tetraazabenzo[cd]azulen-7-yl)prop-2-en-1-one] | > 3 | 0.5 to 1
0.015 to 0.055 | C=CC(=O)N1CCc2nn(-c3ccc(C4CC4)cc3)c3c2C(C1)N(C(=O)c1cnc2c(c1)c(C(F)(F)F)nn2C)CC3 (centres unmarked) [Compound 111, 1-(2-(4-cyclopropylphenyl)-5-(1-methyl-3-(trifluoromethyl)-1H-pyrazolo[3,4-b]pyridine-5-carbonyl)-2,3,4,5,5a,6,8,9-octahydro-7H-1,2,5,7-tetraazabenzo[cd]azulen-7-yl)prop-2-en-1-one] |  | 
